{"source": "patent US9199980B2", "about": "“Compounds” (CHIESI FARMACEUTICI S.p.A., priority 2012, dated 2015)", "origin": "cited, not measured here", "key": {"[1]": {"tested_on": "smoking model of COPD in mice"}, "[2]": {"conditions": "patients with severe disease, frequent exacerbations and mucus hypersecretion"}}}
{"molecule": "O=C(Nc1c(Cl)cncc1Cl)c1ccc(OC(F)F)c(OCC2CC2)c1", "note": "[roflumilast]", "values": [{"measurement": "reduction of the numbers of neutrophils in sputum", "setting": "COPD patients; COPD patients, oral, given over 4 weeks", "value": 36, "unit": "%"}, {"measurement": "improvement of FEV 1", "setting": "COPD patients; [2]", "value": "approximately 50 ml"}, {"measurement": "reduction of exacerbation", "setting": "COPD patients; [2]", "value": "about 15%"}, {"measurement": "effect on lung inflammation and emphysema", "setting": "[1]", "value": "inhibits lung inflammation and emphysema"}]}
